Laboratory results taken from ChEMBL document CHEMBL5209573, “Fluo-8 based assay for SLC24A2 using HEK293 SLC24A2 JumpIn OE cells” (2022).

Target: Sodium/potassium/calcium exchanger 2 (Homo sapiens, UniProt Q9UI40)
Assay: Substrate uptake by the Sodium/Potassium/Calcium Exchanger 2 (NCKX2, SLC24A2) as assessed by Screen Questtrade mark Fluo-8 NW calcium assay kit in HEK-293 JumpIN-SLC24A2 cells (PubChem AID: 1794815)
Type: functional, cell-based, HEK293

Sodium/potassium/calcium exchanger 2, sequence (Q9UI40 whole entry): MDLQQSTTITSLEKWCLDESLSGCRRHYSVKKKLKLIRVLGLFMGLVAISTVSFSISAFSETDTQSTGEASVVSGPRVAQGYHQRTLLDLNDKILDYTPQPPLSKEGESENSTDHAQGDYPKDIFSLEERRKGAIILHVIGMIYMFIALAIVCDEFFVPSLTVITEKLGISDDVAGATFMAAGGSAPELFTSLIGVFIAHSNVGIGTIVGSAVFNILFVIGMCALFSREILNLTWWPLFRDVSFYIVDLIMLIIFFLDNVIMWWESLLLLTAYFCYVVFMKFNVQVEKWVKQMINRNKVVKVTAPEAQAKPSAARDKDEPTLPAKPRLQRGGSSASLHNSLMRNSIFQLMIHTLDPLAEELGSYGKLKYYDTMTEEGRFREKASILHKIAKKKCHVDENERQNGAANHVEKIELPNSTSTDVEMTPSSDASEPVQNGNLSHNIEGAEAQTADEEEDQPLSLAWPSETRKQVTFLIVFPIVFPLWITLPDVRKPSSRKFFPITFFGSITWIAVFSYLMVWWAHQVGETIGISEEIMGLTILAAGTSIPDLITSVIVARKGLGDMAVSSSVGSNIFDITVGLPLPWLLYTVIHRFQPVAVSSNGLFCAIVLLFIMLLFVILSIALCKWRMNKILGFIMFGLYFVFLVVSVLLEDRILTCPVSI

EC50: 280 mM
SMILES: [Cl-].[K+] [POTASSIUM CHLORIDE]
